From patent US12715946B2, “Composition” (JOSHO GAKUEN EDUCATIONAL FOUNDATION, priority 2020, dated 2026)

Test system: Chinese hamster ovary cells (CHO cells)
Experiment: Evaluation of cellular uptake of FITC-labeled model drugs (flow cytometry, MFI)
Format: cell-based
Details: 5 μg/mL, 2 hours incubation, n=3
Experimental: Cellular uptake evaluation of the model drugs described above was conducted using Examples 1 to 3 (polymeric compounds of Manufacturing Examples 1 to 3) or Comparative Examples 1 to 2 (compounds of Manufacturing Examples 4 and 5). A suspension of Ham's F-12 medium (manufactured by Fujifilm Wako Chemical Corporation) containing Chinese hamster ovary cells (CHO cells, 2×10^5 cells/mL) was prepared and seeded at 500μL/well to each well of a 24-well plate. The cells were incubated in a CO2 gas incubator (37° C., 5% CO2) for 24 hours.
Then, the compositions of the Examples and Comparative Examples (Table 1-6) were prepared by mixing 250 μL/well of Ham's F-12 medium containing the above model drugs and 250 μL/well of Ham's F-12 medium containing the manufacturing examples.
Then, the supernatant was removed from each well of the pre-cultured 24-well plate using an aspirator and the cells were washed twice with 500 μL/well of phosphate-buffered saline. Then, the aforementioned compositions were gently added to the wells and incubated in a carbon dioxide incubator for 2 hours. The number of experiments was n=3.
After 2 hours, the supernatants of medium were removed, and the cells were washed twice with 500 μL/well of phosphate-buffered saline. Then, 100 μL/well of trypsin-EDTA solution (0.25% trypsin, 1 mmol/L EDTA solution, Life Technologies) was added, and cultured CHO cells were detached from 24-well plates.
Then, 400 μL/well of trypan blue solution (Fujifilm Wako Chemical Corporation) was added to suspend the cells, and the cells were collected in microtubes. The collected cell suspensions were passed through a cell strainer, and the mean fluorescence intensity (MFI) was measured by flow cytometry. The cells without the polymeric compound (only the model drug was added) were used as controls.
While only the model drug introduced into the cells emits fluorescence. MFI represents the arithmetic average of the fluorescence intensity per cell, and a larger value of MFI indicates a more efficient intracellular uptake of the model drug.

Structure (SMILES): O=C([O-])CCCCCCCNC(=O)c1ccccc1O.[Na+] [Comparative Example 2, Sodium salcaprozate]
- MFI ± S.D. (Model drug: FITC-CTB (Molecular weight 11,000)): 3.7 ± 0.1
- MFI ± S.D. (Model drug: FITC-INS (Molecular weight 5,800)): 19.7 ± 0.2
- MFI ± S.D. (Model drug: FITC-IgG (Molecular weight 150,000)): 3.2 ± 0.1
- MFI ± S.D. (Model drug: FITC-IgM (Molecular weight 900,000)): 3.1 ± 0.2
- MFI ± S.D. (Model drug: FITC-OVA (Molecular weight 45,000)): 3.6 ± 0.4
- MFI ± S.D. (Model drug: FITC-Tf (Molecular weight 77,000)): 6.7 ± 0.2
